Structures are written as SMILES. pIC50: −log10 of the molar value.

From patent US20180155344A1, “TRICYCLIC PIPERIDINE COMPOUNDS” (ACTELION PHARMACEUTICALS LTD, priority 2015, published 2018) come the findings set out here.

The test concerns the target T1, human TPH1 (Homo sapiens, UniProt P17752).
T1 sequence (P17752 1-444): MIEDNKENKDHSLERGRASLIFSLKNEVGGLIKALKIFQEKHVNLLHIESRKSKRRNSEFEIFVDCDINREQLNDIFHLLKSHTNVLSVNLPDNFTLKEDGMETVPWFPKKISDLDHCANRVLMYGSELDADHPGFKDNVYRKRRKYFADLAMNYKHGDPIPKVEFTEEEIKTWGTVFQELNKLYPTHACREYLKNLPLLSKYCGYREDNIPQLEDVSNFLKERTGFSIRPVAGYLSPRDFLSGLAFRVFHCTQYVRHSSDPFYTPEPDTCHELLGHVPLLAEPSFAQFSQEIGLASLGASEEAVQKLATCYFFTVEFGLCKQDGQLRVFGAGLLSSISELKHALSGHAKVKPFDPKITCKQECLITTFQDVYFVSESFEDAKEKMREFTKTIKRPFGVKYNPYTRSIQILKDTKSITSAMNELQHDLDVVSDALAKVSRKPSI
In words: biochemical. An outline of the steps:
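Inhibition is derived from 5-hydroxy-L-tryptophan fluorescence (540 nm emission, 300 nm excitation) after perchloric acid stop, relative to DMSO vehicle. Recombinant full-length human enzyme (40-80 nM) reacts with 40 μM tryptophan plus 100 μM methyltetrahydropterin, pH 7.6 Tris/DTT/catalase, 15° C, 60 min.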
As usually defined, the pIC50 is −log10 of the IC50, conventionally taken in molar units. Read a high pIC50 as a low IC50. Turning to `CCc1nc(NS(C)(=O)=O)ccc1OCC(=O)N1CCc2nc3cnccn3c2C1c1sc(C)nc1C` (stereo not shown) [Example 17.3.1, N-(5-(2-(1-(2,4-dimethylthiazol-5-yl)-3,4-dihydropyrido[4′,3′:4,5]imidazo[1,2-a]pyrazin-2(1H)-yl)-2-oxoethoxy)-6-ethylpyridin-2-yl)methanesulfonamide], the pIC50 is 6.34.

The compound `Cc1nc(C)c(C2c3c(nc4cc(C(F)(F)F)ccn34)CCN2C(=O)COc2ccc(C(=O)N(C)C3CC3)nc2Cl)s1` (stereo not shown) [Example 3.59.2, 6-chloro-N-cyclopropyl-5-(2-(1-(2,4-dimethylthiazol-5-yl)-7-(trifluoromethyl)-3,4-dihydroimidazo[1,2-a:5,4-c′]dipyridin-2(1H)-yl)-2-oxoethoxy)-N-methylpicolinamide] gave a negative-log IC50 (pIC50) of 7.38.

For the compound `O=C(COc1ccc(N2CCOCC2)nc1Cl)N1CCc2nc3ccccn3c2C1c1ccc(Cl)nc1F` (stereo not shown) [Example 1.11.1, 1-(1-(6-chloro-2-fluoropyridin-3-yl)-3,4-dihydroimidazo[1,2-a:5,4-c′]dipyridin-2(1H)-yl)-2-((2-chloro-6-morpholinopyridin-3-yl)oxy)ethan-1-one], the negative-log IC50 (pIC50) was 8.15.

Compound `O=C(COc1ccc(CN2CCOCC2)cc1Cl)N1CCc2nc3cc(C(F)(F)F)ccn3c2C1c1ccc(Cl)nc1` (stereo not shown) [Example 3.37.1, 2-(2-chloro-4-(morpholinomethyl)phenoxy)-1-(1-(6-chloropyridin-3-yl)-7-(trifluoromethyl)-3,4-dihydroimidazo[1,2-a:5,4-c′]dipyridin-2(1H)-yl)ethan-1-one] had a negative-log IC50 (pIC50) of 7.30.

`Cc1cc(C2c3c(nc4cc(C(F)(F)F)ccn34)CCN2C(=O)COc2ccc3ccccc3c2)ccn1` (stereo not shown) [Example 3.57.1, 1-(1-(2-methylpyridin-4-yl)-7-(trifluoromethyl)-3,4-dihydroimidazo[1,2-a:5,4-c′]dipyridin-2(1H)-yl)-2-(naphthalen-2-yloxy)ethan-1-one]: the pIC50 is 6.81.

As to `O=C(NC1CC1)c1ccc(OCC(=O)N2CCc3nc4ccccn4c3C2c2ccc(OC(F)(F)F)cc2F)c(Cl)n1` (stereo not shown) [Example 1.19.2, 6-chloro-N-cyclopropyl-5-(2-(1-(2-fluoro-4-(trifluoromethoxy)phenyl)-3,4-dihydroimidazo[1,2-a:5,4-c′]dipyridin-2(1H)-yl)-2-oxoethoxy)picolinamide], the pIC50 is 7.74.

Take `CS(=O)(=O)Nc1ccc(OCC(=O)N2CCc3nc4c(F)cccn4c3C2c2ccc(Cl)cc2F)c(Cl)n1` (stereo not shown) [Example 15.1.1, N-(6-chloro-5-(2-(1-(4-chloro-2-fluorophenyl)-6-fluoro-3,4-dihydroimidazo[1,2-a:5,4-c′]dipyridin-2(1H)-yl)-2-oxoethoxy)pyridin-2-yl)methanesulfonamide]: the pIC50 was 5.58.

Compound `COc1cc(C2c3c(nc4cc(C(F)(F)F)ccn34)CCN2C(=O)COc2ccc3ccccc3c2)cnc1OC` (stereo not shown) [Example 3.19.1, 1-(1-(5,6-dimethoxypyridin-3-yl)-7-(trifluoromethyl)-3,4-dihydroimidazo[1,2-a:5,4-c′]dipyridin-2(1H)-yl)-2-(naphthalen-2-yloxy)ethan-1-one] had a negative-log IC50 (pIC50) of 7.52.

In the case of `O=C(COc1ccc(CN2CCOCC2)cc1Cl)N1CCc2nc3cc(C(F)(F)F)ccn3c2C1c1cc2cccnc2s1` (stereo not shown) [Example 3.49.2, 2-(2-chloro-4-(morpholinomethyl)phenoxy)-1-(1-(thieno[2,3-b]pyridin-2-yl)-7-(trifluoromethyl)-3,4-dihydroimidazo[1,2-a:5,4-c′]dipyridin-2(1H)-yl)ethan-1-one], the pIC50 is 7.89.

Compound `O=C(COc1ccc(CN2CCOCC2)cc1Cl)N1CCc2nc3cc(C(F)(F)F)ccn3c2C1c1ccc(F)cc1` (stereo not shown) [Example 3.29.2, 2-(2-chloro-4-(morpholinomethyl)phenoxy)-1-(1-(4-fluorophenyl)-7-(trifluoromethyl)-3,4-dihydroimidazo[1,2-a:5,4-c′]dipyridin-2(1H)-yl)ethan-1-one] showed a pIC50 of 6.69.
